Data reported in ChEMBL document CHEMBL1201862, “PubChem BioAssay data set” (2004).
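1) Cells in 96-well plates. 2) Compound, 48 h, 5 concentrations. 3) Linear interpolation between surrounding doses. 4) Unreached endpoint = highest concentration. At the GI50, growth is halved.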 The source made the active and inactive calls. Rule as the data show it: active = GI50 up to about 1.1 µM and inactive = higher.

What was measured:
Experiment in all cases: NCI anticancer screen, dose series, 48 h
HOP-92 = test system: HOP-92
A549 = test system: A549
Malme-3M = test system: Malme-3M
HCT-116 = test system: HCT-116
EKVX = test system: EKVX
SF-295 = test system: SF-295
MDA-N = test system: MDA-N
OVCAR-8 = test system: OVCAR-8
NCI-H23 = test system: NCI-H23
SNB-75 = test system: SNB-75
SW-620 = test system: SW-620
MOLT-4 = test system: MOLT-4
OVCAR-5 = test system: OVCAR-5
BT-549 = test system: BT-549
RPMI-8226 = test system: RPMI-8226
ACHN = test system: ACHN
MCF7 = test system: MCF7
HT-29 = test system: HT-29
RXF 393 = test system: RXF 393
SR = test system: SR

Measured: GI50

Cc1cc2c(cc1-c1cc3c(cc1C)C(C(C)C)=C(O)C(=O)/C3=C\Nc1cccc3c(N)cccc13)/C(=C/Nc1cccc3c(N)cccc13)C(=O)C(O)=C2C(C)C
inactive: HOP-92 > 100 µM | A549 59.4 µM | Malme-3M > 100 µM | HCT-116 > 100 µM | EKVX > 100 µM | SF-295 > 100 µM | MDA-N > 100 µM | OVCAR-8 > 100 µM | NCI-H23 > 100 µM | SNB-75 > 100 µM | SW-620 > 100 µM | MOLT-4 37.4 µM | OVCAR-5 > 100 µM | BT-549 > 100 µM | RPMI-8226 > 100 µM | ACHN > 100 µM | MCF7 > 100 µM | HT-29 > 100 µM | RXF 393 > 100 µM | SR 65.8 µM
